Values joined by “and” are separate entries in the source; they are usually repeats but may differ in a detail not shown here. Equal values may be shown once.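 Cultured in 96-well plates, cells were exposed to test compound for 48 hours across five concentrations. GI50 = concentration required for 50% inhibition of growth. TGI: concentration producing complete growth inhibition.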
What was measured:
Assay in all cases: NCI-60 cell line screen, 48 h
COLO 205 colon = system: COLO 205 colon
HCT-116 colon = system: HCT-116 colon
HT29 colon = system: HT29 colon
NCI-H460 lung = system: NCI-H460 lung
PC-3 prostate = system: PC-3 prostate
SF-539 CNS = system: SF-539 CNS
SK-MEL-28 melanoma = system: SK-MEL-28 melanoma
SK-OV-3 ovarian = system: SK-OV-3 ovarian
SN12C renal = system: SN12C renal
CAKI-1 renal = system: CAKI-1 renal

Structure (SMILES) | GI50 (COLO 205 colon) | TGI (COLO 205 colon) | GI50 (HCT-116 colon) [nM] | TGI (HCT-116 colon) [µM] | GI50 (HT29 colon) [nM] | TGI (HT29 colon) | GI50 (NCI-H460 lung) [nM] | TGI (NCI-H460 lung) [µM] | GI50 (PC-3 prostate) | TGI (PC-3 prostate) | GI50 (SF-539 CNS) [nM] | TGI (SF-539 CNS) [µM] | GI50 (SK-MEL-28 melanoma) [nM] | TGI (SK-MEL-28 melanoma) [µM] | GI50 (SK-OV-3 ovarian) [nM] | TGI (SK-OV-3 ovarian) | GI50 (SN12C renal) [nM] | TGI (SN12C renal) [µM] | TGI (CAKI-1 renal) [µM] | GI50 (CAKI-1 renal) [µM]
C[C@@H]1[C@H]2[C@H](C=C3[C@@H]4CC[C@H]5Cc6nc7c(nc6C[C@]5(C)[C@H]4C[C@@H](O)[C@@]32C)C[C@@H]2CC[C@H]3C4=C[C@@H]5O[C@@]6(CC[C@](C)(CO)O6)[C@@H](C)[C@@]5(O)[C@@]4(C)[C@H](O)C[C@@H]3[C@@]2(C)C7)O[C@]12CCC(C)(C)O2 | 292 nM | 0.926 µM | 690 | 31.2 | 340 | 2.47 µM | 466 | 4.95 | 391 nM | 6.76 µM | 114 | 4.08 | 518 | 21.3 | 472 | 5.29 µM | 11600 | > 70.3 |  | 
CCOC(=O)C12CCSC1C1(C#N)C(C#N)=CC2(N=P(c2ccccc2)(c2ccccc2)c2ccccc2)n2c(=O)n(-c3ccccc3)c(=O)n21 (centres undefined) |  | > 100 µM |  | > 100 |  | > 100 µM |  | > 100 |  |  |  | > 100 |  | 73.3 |  |  |  | > 100 | > 100 | 
CSc1c(S(C)=O)[nH]c2cc(Br)cc(Br)c12 (centres undefined) |  | 33.1 µM |  | 32.7 |  | 72.1 µM |  | 35.1 |  |  |  | 47.5 |  | 43.4 |  | 61.9 µM |  | 33.9 | 74.3 | 
COc1ccc(C(=O)Nc2ccc(S(=O)(=O)NCC(=O)O)cc2)cc1 |  | > 100 µM |  |  |  | > 100 µM |  | > 100 |  |  |  | > 100 |  | > 100 |  | > 100 µM |  | > 100 | > 100 | 
CC1(C(=O)NCCN(CCNC(=O)C2(C)CC3(C)CC(C)(C2)C(=O)NC3=O)CCNC(=O)C2(C)CC3(C)CC(C)(C2)C(=O)NC3=O)CC2(C)CC(C)(C1)C(=O)NC2=O (centres undefined) |  | > 100 µM |  | > 100 |  | > 100 µM |  | > 100 |  |  |  | > 100 |  | > 100 |  | > 100 µM |  | > 100 | > 100 | 
CC(C)(C)OC(=O)N1CC(Cn2cc(C(F)(F)F)c3c(Cl)ncnc32)C1 | 12600 nM | 28.5 µM | 1860 | 3.35 | 2600 | 6.67 µM | 2060 | 3.99 | 1760 nM | 3.5 µM | 11300 | 24.6 | 1910 | 3.53 | 2910 | 8.21 µM | 2320 | 6.12 |  | 
Cc1ccc(/C=N/NS(=O)(=O)c2ccccc2)cc1 |  | > 100 µM |  | > 100 |  | > 100 µM |  | > 100 |  |  |  | > 100 |  | > 100 |  | > 100 µM |  | > 100 | > 100 | 
COc1cc(-c2nc(-c3nnc(-c4ccc(F)c(Cl)c4)o3)c3ccccn23)cc(OC)c1OC | 4680 nM | > 100 µM |  |  |  |  |  |  |  |  |  |  |  |  |  |  | 2420 | > 100 | > 100 | 5.46
COC1=C(C)C(=O)C2=C(C1=O)C(CO)N1C(C#N)C3CC4C(C1C2N1CCOC41)N3C (centres undefined) | 0.734 nM and 6.04 nM and < 13.4 nM | 0.0203 µM and 0.0151 µM and 0.0205 µM |  |  |  | 0.423 µM and 0.0773 µM |  |  | 9.46 nM and 88.9 nM and 76.4 nM | 0.663 µM and 0.387 µM |  |  |  |  |  | 1.32 µM and 2.7 µM and 1.7 µM |  |  |  | 
O=C(O)c1c([N+](=O)[O-])cc(C(F)(F)F)cc1[N+](=O)[O-] |  | > 100 µM |  | > 100 |  | > 100 µM |  | > 100 |  |  |  | > 100 |  | > 100 |  |  |  | > 100 | > 100 | 
Clc1ccccc1C1N2CCCCC2[C@@H]2c3[nH]c4ccccc4c3CCN12 (some centres undefined) |  | 37.4 µM |  | 32.6 |  | 31.8 µM |  | 35.6 |  |  |  | 30.9 |  | 34.2 |  | 55 µM |  | 30.9 |  | 
C/C=C/C(=O)[C@@H](O)C(C)C |  | > 100 µM |  | > 100 |  | > 100 µM |  |  |  |  |  |  |  | > 100 |  | > 100 µM |  | > 100 | > 100 | 
CN(C)C(=S)/N=c1\ssc(=S)n1-c1ccccc1 |  |  |  | 27.2 |  | 37.5 µM |  | 33.1 |  |  |  | 30.5 |  | 30.5 |  | > 100 µM |  | 28.8 | 33.3 | 
COc1ccc2c(c1)C(=O)c1c-2c(OCCN(C)C)nc2cc(OC)ccc12 | 571 nM | 10.8 µM | 344 | 1.41 | 333 | 1.37 µM | 411 | 1.51 | 1240 nM | 3.69 µM | 1610 | 3.32 | 2080 | 4.19 |  |  | 1060 | 2.69 | 11.1 | 2.12
O=C1NC2(CCCC2)/C(=N\O)C12CCCC2 |  | > 100 µM |  | > 100 |  | > 100 µM |  | > 100 |  |  |  | > 100 |  | > 100 |  | > 100 µM |  | > 100 | > 100 | 

Reference: PubChem BioAssay (NCI)
